In one series the test system is estradiol serum levels. Put plainly: estradiol serum levels after weekly administration of cetrorelix (FIG. 2). Type of series: in vivo. The source says: […] The estradiol serum levels are between about 35-80 pg/ml, preferably between about 45-75 pg/ml, more preferably between about 50-75 pg/ml.
The test system of series [1] is patients with confirmed endometriosis. In words: weekly Cetrorelix acetate treatment of nine patients with confirmed endometriosis (FIG. 1). Type of series: in vivo, human. The conditions noted are these: 3 mg s.c. weekly for 8 weeks; for hot flushes or other (estradiol) withdrawal symptoms: patients with endometriosis.
Series [2] concerns patients with endometriosis. The conditions noted are these: 3 mg s.c. per week over eight weeks; stages rAFS I-II; cited from earlier work.
The test system of series [3] is patients with endometriosis. In words: weekly Cetrotide s.c. over eight weeks in endometriosis patients with symptomatic pain. The conditions noted are these: 3 mg s.c. per week over eight weeks. Type of series: in vivo, human. The protocol:
Aim of the medicinal therapy of patients with endometriosis with symptomatic pain is to obtain a treatment without side effects, especially avoiding the negative effects of estrogen suppression and which is long-lasting after finishing therapy. The specific pharmacological mode of action of LHRH antagonists allows new possibilities for treatment of endometriosis.
The weekly administration of an adequate dose of an LHRH antagonist, e.g. 3 mg Cetrotide® s.c./per week over a period of eight weeks leads to a controlled suppression of estrogen secretion so that serum concentrations between about 35 pg/ml and about 80 pg/ml, preferably between about 45-75 pg/ml, more preferably between about 50-75 pg/ml are obtained. […] Also the development of osteoporosis can be avoided.

Non-standard residues stand in square brackets, D forms with d. Residues, ends and D or L forms follow the SMILES beside them. dPhe(4-Cl) = N[C@H](Cc1ccc(Cl)cc1)C(=O)O; d2Nal = N[C@H](Cc1ccc2ccccc2c1)C(=O)O; dCit = NC(=O)NCCC[C@@H](N)C(=O)O; d3Pal = N[C@H](Cc1cccnc1)C(=O)O

Here are results for one compound from US7666836B2, “Method for the therapeutic management of endometriosis” (priority 1999, dated 2010).

`CC(=O)N[C@H](Cc1ccc2ccccc2c1)C(=O)N[C@H](Cc1ccc(Cl)cc1)C(=O)N[C@H](Cc1cccnc1)C(=O)N[C@@H](CO)C(=O)N[C@@H](Cc1ccc(O)cc1)C(=O)N[C@H](CCCNC(N)=O)C(=O)N[C@@H](CC(C)C)C(=O)N[C@@H](CCCNC(=N)N)C(=O)N1CCC[C@H]1C(=O)N[C@H](C)C(N)=O` [Cetrorelix acetate] (Ac-[d2Nal][dPhe(4-Cl)][d3Pal]SY[dCit]LRP[dA]-NH2): the “estradiol serum levels (FIG. 2)” value with estradiol serum levels (weekly dose of 1 mg once per week) lay within 35 to 80 pg/mL. For the same compound, the “estradiol serum levels (FIG. 2)” value with estradiol serum levels (weekly dose of 3 mg once per week) lay in the range of 35 to 80 pg/mL. In series [1], the “proliferation of the endometrium at the end of treatment (histological biopsies)” value is given as “no proliferation of the endometrium” and the “hot flushes or other (estradiol) withdrawal symptoms” value is listed as “avoiding any hot flushes or other withdrawal symptoms”. For the same compound, in series [1] (listed as Cetrorelix), the “proliferation of the endometrium at the end of treatment (histological biopsies)” value was “without proliferation of the endometrium” and the “hot flushes or other (estradiol) withdrawal symptoms” value is “without any signs of estradiol withdrawal symptoms”. Besides, in series [1] (nine patients), the ovarian cyst formation result is “No ovarian cyst formation occurred” and the “progress of the disease confirmed by 2nd look laparascopy” value is on record as “without any progress of the disease”. Further, the “clinical regression of the disease (decrease of the implantation area)” value in series [2] was “clinical regression of the disease”. Also, the symptomatic pain result in series [3] (all stages of the disease (rAFS I-IV)) is reported as “effectively suppressed”. Further, the vegetative symptoms result in series [3] (serum concentration range about 35-80 pg/ml) is “no vegetative symptoms arise”.
